Read-outs that look alike come from different tables or passages of the source.
Tests used:
HBMEC cells = assay: Blood–brain barrier transport study in HBMEC Transwell monolayer; conditions: for AerExt Te (%) ± SD 2 h / AerExt Te (%) ± SD 4 h / AerExt Te (%) ± SD 24 h: AerExt 40 µg mL^−1 apical; for AerExt Te (%) ± SD 2 h / AerExt Te (%) ± SD 4 h / AerExt Te (%) ± SD 24 h / RootExt Te (%) ± SD 2 h / RootExt Te (%) ± SD 4 h / RootExt Te (%) ± SD 24 h: n.q. = not quantified in the basolateral compartment; for RootExt Te (%) ± SD 2 h / RootExt Te (%) ± SD 4 h / RootExt Te (%) ± SD 24 h: RootExt 20 µg mL^−1 apical
Experimental: After the toxicity evaluation, the HBMEC cell line was also used as a simplified in vitro model of the BBB endothelium. Cells were seeded at a density of 1.6 × 10^5 cells/cm^2 in 12-well Transwell® plates (Corning Costar Corp., Corning, USA) with a pore diameter of 0.4 μm, pre-coated with type I rat tail collagen (100 μg mL^−1) [55]. The culture medium was renewed every 2 days until a monolayer cell structure was formed (see Supplementary Figure S2), and transport experiments were initiated after 10 days. In transport experiments, the medium in the apical (upper) compartment of the Transwell system was removed, and 0.5 mL of AerExt or RootExt at a concentration of 40 μg mL^−1 and 20 μg mL^−1, respectively, was added to these compartments (applied in duplicate). Also, a medium containing 0.4% (v/v) ethanol was used as control group. The basolateral (lower) compartments were filled with 1.5 mL of fresh culture medium. The cells were incubated under these conditions for 2, 4, and 24 h.
At the end of the incubation periods, media samples were collected from both chambers and lyophilized using a freeze-drying system from Martin Christ (Osterode am Harz, Germany). The samples were stored at −80 °C until analysis. The collected samples were subjected to chemical analyses to evaluate the ability of bioactive compounds contained in the extracts to pass through the cell monolayer.
The transport efficiency (Te) of bioactive substances was calculated based on Equation (3), described by [56]:Te (%) = CLower/CUpper × 100(3)
This calculation was performed to understand whether the compound crosses the cell layer and how efficiently it is transported.
For this purpose, 0.2 mL of cold water (H2O) was added to the samples, and the samples were vortexed for 10 s. Then, 0.8 mL of cold methanol was added and vortexed again for 10 s. Then, the mixture was centrifuged at 14,000 rpm for 5 min, and the supernatant was carefully transferred to a 1.5 mL Eppendorf tube and dried in a SpeedVac device at 40 °C and 13 bar pressure. Finally, the dried samples were resuspended in 25 μL of pure ethanol for their subsequent analysis.
For HPLC-Q-TOF MS/MS analysis, aliquots of 2 μL were injected into an HPLC model 1290 coupled to a Q-TOF series 6540 (Agilent Technologies, Waldbronn, Germany). For GC-Q-TOF MS analysis, aliquots of 1 μL were injected with a split ratio of 1:10 into a GC model 7890B coupled to a Q-TOF series 7200 (Agilent Technologies, Waldbronn, Germany). The HPLC-MS and GC-MS chromatograms were processed using the Agilent Mass Hunter Qualitative software (version B.10.0) to verify the retention time and exact mass of the compounds previously reported by us [25] and to extract their peak area to calculate the BBB permeability.

[1] = Parallel artificial membrane permeability assay for the blood–brain barrier (PAMPA-BBB); conditions: for Papp at 4 h: PAMPA, pH 7.4; for RootExt log Pe: compound within RootExt donor solution; for RootExt log Pe / AerExt log Pe: 37 °C, 4 h, PBS pH 7.4, n.q. = not quantified in the acceptor plate; for AerExt log Pe: compound within AerExt donor solution
Experimental: (§1) The permeability of bioactive compounds from AerExt and RootExt across the BBB was assessed using the PAMPA-BBB assay, following the methodology described by [11]. Firstly, the BBB solution was prepared by dissolving 8 mg of PBL and 4 mg of cholesterol in 600 μL of n-dodecane. The initial donor solution was prepared by mixing 1 mL of AerExt or RootExt (at 10 mg mL^−1 in EtOH) with 1 mL of buffer (PBS, pH = 7.4, 10 mM). The filter membrane of the donor plate was coated with 5 μL of BBB solution. The acceptor plate was filled with 350 μL of buffer, and the donor plate was carefully placed on top of the acceptor plate to form a “sandwich-like” assembly. Subsequently, 350 μL of the donor solution was added to the donor plate, which was then covered and incubated at 37 °C for 4 h in the dark. After the incubation time, 300 μL of the solution was collected from each plate, transferred into separate vials, and evaporated using a SpeedVac system at 40 °C under 13 mbar pressure. The dried acceptor and donor solutions were dissolved in 50 μL of pure EtOH before being subjected to HPLC-Q-TOF-MS/MS and GC-Q-TOF-MS analysis. Permeability (Pe) across the PAMPA-BBB of the bioactive compound was calculated according to Equation (1) [54], with modifications in concentration rates.Pe = −ln[1 − CA(t)/Cequilibrium]/(A × (1/VD + 1/VA) × t)(1)
(§2) Cequilibrium was calculated according to Equation (2):Cequilibrium = [CD(t) × VD + CA(t) × VA]/(VD + VA)(2)
(§3) The HPLC-MS and GC-MS chromatograms were processed using the Agilent Mass Hunter Qualitative software (version B.10.0) to verify the retention time and exact mass of the compounds previously reported by us [25] and to extract their peak area to calculate the BBB permeability.

[2] = oil/water partition coefficient; Table 1; ref PubChem; cited from earlier work
SH-SY5Y cells = assay: Neuroprotection against H2O2, L-glutamate and Aβ1-42 in differentiated SH-SY5Y cells (MTT); conditions: 24 h
Experimental: To investigate the neuroprotective potential of AerExt or RootExt, oxidative damage (H2O2), excitotoxic stress (L-glutamate), and Aβ1-42 toxicity were induced in cells and evaluated as described by [58]. Briefly, SH-SY5Y cells were plated as described above, and 24 h after cell attachment, cells were pre-treated with non-toxic concentrations of AerExt or RootExt (40 μg mL^−1 for AerExt; 20 μg mL^−1 for RootExt) for 24 h. In the control group, DMEM/F12 cell medium supplemented with 1% FBS, 100 U mL^−1 penicillin, 100 μg mL^−1 streptomycin, 250 ng mL^−1 antimycotic, and 0.4% ethanol was used. The next day, cells were incubated with either cell medium alone (control), H2O2 (65 μM), L-glutamate (23 mM), or Aβ1-42 (30 μM) for 24 h. Cell viability was assessed by MTT assay at the end of the experiments. All the experiments were repeated three times, and a T-test was applied between the treated and control conditions considering statistically significant differences when p < 0.05.

[3] = PAMPA
Experimental: as §1, §2, §3

Compound | AerExt Te (%) ± SD 2 h (HBMEC cells) | AerExt Te (%) ± SD 4 h (HBMEC cells) | AerExt Te (%) ± SD 24 h (HBMEC cells) | RootExt log Pe [1] | log p [2] | RootExt Te (%) ± SD 2 h (HBMEC cells) | RootExt Te (%) ± SD 4 h (HBMEC cells) | RootExt Te (%) ± SD 24 h (HBMEC cells) | AerExt log Pe [1] | other results
O=c1cc(-c2ccc(O)cc2)oc2cc(O)cc(O)c12 [Apigenin] | 4.2 ± 0.9% | 5.1 ± 0.3% | 309.7 ± 93.0% | n.q. | 1.7 |  |  |  |  | Papp at 4 h [1]: 97.7 ×10⁻⁶ cm/s
OO [H2O2] |  |  |  |  |  |  |  |  |  | cell viability after neurotoxic agent, compared with control (SH-SY5Y cells; H2O2 65 µM): 48%
Cc1nccc2c1[nH]c1ccccc12 [Harman] |  |  |  |  | 3.6 |  |  |  |  | AerExt Cross BBB Potential [3]: ++ (key: –: not quantified in acceptor; +: log Pe < −6.5; ++: −6.5 < log Pe < −5.5; +++: −5.5 < log Pe < −4.5)
COc1ccc([C@@H]2CC(=O)c3c(O)cc(O[C@@H]4O[C@H](CO[C@@H]5O[C@@H](C)[C@H](O)[C@@H](O)[C@H]5O)[C@@H](O)[C@H](O)[C@H]4O)cc3O2)cc1O [Hesperidin] | n.q. | n.q. | n.q. | n.q. | −1.1 | n.q. | n.q. | n.q. | n.q. | 
COc1c(O)cc2oc(-c3ccc(O[C@@H]4O[C@H](CO)[C@@H](O)[C@H](O)[C@H]4O)cc3)cc(=O)c2c1O [Hispidulin 4′-glucoside] |  |  |  |  |  |  |  |  |  | AerExt Cross BBB Potential [3]: + (key: –: not quantified in acceptor; +: log Pe < −6.5; ++: −6.5 < log Pe < −5.5; +++: −5.5 < log Pe < −4.5); AerExt log Pe ([3]; pH 7.4): −6.14
N[C@@H](CCC(=O)O)C(=O)O [L-glutamate] |  |  |  |  |  |  |  |  |  | viability at 23000 µM (SH-SY5Y cells; Homo sapiens, read-out: cell viability after neurotoxic agent, compared with control): 47%
COc1ccc(-c2cc(=O)c3c(OC)c(OC)c(OC)c(OC)c3o2)cc1OC [Nobiletin] | n.q. | n.q. | n.q. |  | 3.0 | n.q. | n.q. | n.q. |  | crossing of the HBMEC-BBB (HBMEC cells; AerExt 40 µg mL^−1 / RootExt 20 µg mL^−1, 2, 4, 24 h): could not cross the HBMEC-BBB; Papp at 4 h [1]: 49 ×10⁻⁶ cm/s
CC(C)[C@@H]1CC[C@@]2(C)[C@H](O)CC[C@](C)(O)[C@H]2[C@@H]1O[C@@H]1O[C@H](CO)[C@@H](O)[C@H](O)[C@H]1O [Ophiopogonoside A] |  |  |  | n.q. | 0.4 | n.q. | n.q. | 66.0 ± 3.2% | n.q. | 
COc1cc([C@@H]2OC[C@@H]3[C@H]2CO[C@H]3c2cc(OC)c(O[C@@H]3O[C@H](CO)[C@@H](O)[C@H](O)[C@H]3O)c(OC)c2)cc(OC)c1O[C@@H]1O[C@H](CO)[C@@H](O)[C@H](O)[C@H]1O [Syringaresinol diglucoside] | n.q. | n.q. | n.q. | n.q. | −1.4 |  |  |  | n.q. | 
C/C=C\c1cc(OC)c(OC)cc1OC [β-asarone] | 7.5 ± 2.0% | 15.0 ± 7.3% | 15.5 ± 1.0% | n.q. | 3.0 |  |  |  |  | 
